How the values were obtained:
[1] = system: OATP KO mice; experiment: Effect of LBAT selective compounds on serum bile acid levels in OATP KO mice; type: in vivo; conditions: for effect on serum bile acid levels: oral administration, FIGS. 1 to 4
Description: Male OATP KO mice (Oatp1a/1b cluster knockout mice, Taconic, USA) aged 8 to 9 weeks were used in the studies. After completion of quarantine and acclimatization period, animals were randomized based on body weight into experimental groups (n=4 mice in each). On the experimental day, a baseline blood sample was collected followed by oral dosing of vehicle (0.5% CMC, 0.1% Tween 80) or compound of Example 3, 6, 13 or 15 at the indicated doses. Blood samples were then collected at various time points after dose (indicated in each graph). Blood was allowed to clot, and serum was collected by centrifugation at 3000 g, 4° C. for 15 minutes and stored at −80° C. for further analysis. The total bile acid concentration in each serum sample was determined by using the CELL BIOLABS Total Bile Acids kit (STA631) according to manufacturer's instructions. Mean±SEM, n=4.

[2] = Bioavailability studies; type: in vivo, mice (C57BL/6); conditions: male, mouse, plasma; C57BL/6 mice; single intravenous dose 1 mg/kg and single oral dose 10 mg/kg
Procedure: Male mice (C57BL/6 or CD1) or Wistar rats of 8-9 weeks old were used. For each test compound, two groups of 3 animals each were used. One group was administered a single intravenous dose of 1 mg/kg (vehicle 100% DMSO) through the tail vein and the other group was administered a single oral dose of 10 mg/kg through gavage needle. The group that was administered an oral dose was fasted overnight. Blood samples were collected after 0.083, 0.25, 0.5, 1, 2, 4, 6, 8 and 24 hours following intravenous administration, and after 0.25, 0.5, 1, 2, 4, 6, 8 and 24 hours following oral administration. Blood samples were taken from saphenous vein. 0.2% EDTA was used as the anticoagulant. The samples were analyzed by a discovery grade bioanalytical method developed for the estimation of test compound in plasma, using an LC-MS/MS system.

[3] = Bidirectional permeability assay (Caco-2 cells); type: in vitro ADME; conditions: human, 10 μM in FaSSIF buffer; for Papp A→B at 120 min, 10 μM: Caco-2, pH 7.4, absorptive direction (A2B); for Papp B→A at 120 min, 10 μM: Caco-2, pH 7.4, secretory direction (B2A)
Description: HepaRG-Based Assay Protocol

[4] = target: T1, Human IBAT (Homo sapiens, UniProt Q12908); experiment: IBAT (h/m) assay, human IBAT-overexpressing cells, 3H-taurocholic acid uptake; type: cell-based; conditions: highest test concentration 10 μM, 20 minutes, read-out: hIBAT IC50
T1 construct: expressed in transfected cells; Puromycin selection
T1 sequence (Q12908 1-348): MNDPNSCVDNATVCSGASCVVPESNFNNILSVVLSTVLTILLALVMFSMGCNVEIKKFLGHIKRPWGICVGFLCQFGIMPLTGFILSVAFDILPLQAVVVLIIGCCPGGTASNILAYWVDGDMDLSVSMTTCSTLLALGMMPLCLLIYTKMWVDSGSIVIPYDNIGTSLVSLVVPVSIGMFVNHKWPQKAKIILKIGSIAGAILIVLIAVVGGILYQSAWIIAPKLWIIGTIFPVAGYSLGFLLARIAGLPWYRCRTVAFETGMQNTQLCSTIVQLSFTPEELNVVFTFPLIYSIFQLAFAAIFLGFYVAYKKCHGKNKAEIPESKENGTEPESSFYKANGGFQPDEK
Procedure: 10,000 cells (Human or Mouse IBAT-overexpressing cells) were seeded in 96-wells plate (Corning CLS3809) in 200 μL MEM-alpha medium (Gibco 12571-063) supplemented with 10% FBS (Gibco 10438026) containing Puromycin (Gibco A1113803) (10 μg/mL) and incubated at 37° C. in 5% CO2 for 48 hours. After incubation, media was decanted from the wells and cells were washed two times with 300 μL of basal MEM-alpha medium (FBS-free). After decanting basal MEM-alpha medium each time, plates were tapped against paper towel to ensure maximum removal of residual media. Test inhibitor dilutions (highest test concentration being 10 μM, 3-fold serial dilution, 10 points) prepared in DMSO (Sigma D2650) were added in incubation mix (maintaining 0.2% final DMSO concentration) containing 0.25 μM 3H-taurocholic acid (ARC ART-1368) and 5 μM of cold taurocholic acid (Sigma T4009). 50 μL of incubation mix containing test inhibitors was then added to the wells (in duplicate) and the plates were incubated for 20 minutes in a CO2 incubator at 37° C. After incubation, the reaction was stopped by keeping the plates on ice water mix for 2-3 minutes and then the incubation mix was aspirated completely from the wells. The wells were washed two times with 250 μL of chilled unlabeled 1 mM taurocholic acid dissolved in HEPES (Gibco 15630080)-buffered (10 mM) HBSS (Gibco 14175079) (pH 7.4). The plates were tapped against a paper towel after every wash to ensure maximum removal of blocking buffer.
(§1) 100 μL of MicroScint-20 (PerkinElmer 6013621) was added to the wells and kept overnight at room temperature before reading the plates in TopCount NXT™ Microplate Scintillation and Luminescence Counter from PerkinElmer under 3H Test protocol (set at 120 seconds reading time per well).
(§2) All test compounds were provided in powder form at room temperature. 10 mM DMSO stocks of the test compounds were prepared, aliquoted and stored at −20° C. From the 10 mM DMSO stock of the compounds, a 3-fold serial dilution in DMSO was prepared to get a total of 10 dilutions of the test compounds. 0.5 μL of this dilution in DMSO was added to 250 μL of FBS-free basal media containing 3H-taurocholic acid and cold taurocholic acid to prepare the incubation mixture.

[5] = target: T2, Human LBAT (Homo sapiens, UniProt Q14973); experiment: LBAT (h/m) assay, human LBAT-overexpressing cells, 3H-taurocholic acid uptake; type: cell-based; conditions: 0.3 μM 3H-taurocholic acid and 7.5 μM cold taurocholic acid, 20 minutes, read-out: hLBAT IC50
T2 construct: expressed in transfected cells; Geneticin selection
T2 sequence (Q14973 1-349): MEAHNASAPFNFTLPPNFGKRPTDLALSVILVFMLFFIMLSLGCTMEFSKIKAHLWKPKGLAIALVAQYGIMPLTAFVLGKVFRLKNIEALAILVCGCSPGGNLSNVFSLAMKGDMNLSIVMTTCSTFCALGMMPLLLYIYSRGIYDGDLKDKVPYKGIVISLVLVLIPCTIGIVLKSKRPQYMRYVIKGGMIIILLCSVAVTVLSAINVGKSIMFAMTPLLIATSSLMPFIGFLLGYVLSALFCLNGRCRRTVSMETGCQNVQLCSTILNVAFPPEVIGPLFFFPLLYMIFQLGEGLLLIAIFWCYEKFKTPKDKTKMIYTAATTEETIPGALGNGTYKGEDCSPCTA
Procedure: 20,000 cells (Human or Mouse LBAT-overexpressing cells) were seeded in 96-wells plate (Corning CLS3809) in 100 μL MEM-alpha medium (Gibco 12571-063) supplemented with 10% FBS (Gibco 10438026) containing Geneticin (Gibco 10131-027) (1 mg/mL) and incubated at 37° C. in 5% CO2 for 24 hours. After incubation, media was decanted from the wells and cells were washed two times with 300 μL of basal MEM-alpha medium (FBS-free). After decanting basal MEM-alpha medium each time, plates were tapped against paper towel to ensure maximum removal of residual media.
For human LBAT, incubation mix was prepared by adding test inhibitor dilutions (3-fold serial dilution in DMSO (Sigma D2650), 10 points) in MEM-alpha (without FBS) containing 0.3 μM 3H-taurocholic acid (ARC ART-1368) and 7.5 μM cold taurocholic acid (Sigma T4009) (maintaining 0.2% final DMSO concentration). For mouse LBAT, incubation mix was prepared by adding test inhibitor dilutions (3-fold serial dilution in DMSO, 10 points) in MEM-alpha (without FBS) containing 0.3 μM 3H-taurocholic acid and 25 μM cold taurocholic acid maintaining 0.2% final DMSO concentration).
50 μL of incubation mix containing test inhibitors was then added to the wells (in duplicate) and the plates were incubated for 20 minutes in a CO2 incubator at 37° C. After incubation, the reaction was stopped by keeping the plates on ice water mix for 2-3 minutes and then the incubation mix was aspirated completely from the wells. The wells were washed two times with 250 μL of chilled unlabeled 1 mM taurocholic acid dissolved in HEPES (Gibco 15630080)-buffered (10 mM) HBSS (Gibco 14175079) (pH 7.4). The plates were tapped against a paper towel after every wash to ensure maximum removal of blocking buffer.
as §1, with “well, with normal plate orientation).” for “well).”
as §2

## CCCC[C@@H]1CN(c2ccccc2)c2cc(SC)c(O/C=C(\F)C(=O)O)cc2S(=O)(=O)N1C (single isomer, unassigned) [Example 13]
[1]; oral 30 mg/kg, within one hour after dosing
  serum bile acids levels: about 100 μmol/L
[1]
  effect on serum bile acid levels: increased serum bile acids in a dose-dependent manner
[2]
  bioavailability: 61%
[3]
  Papp A→B at 120 min, 10 μM: 3.1 ×10⁻⁶ cm/s
  Papp B→A at 120 min, 10 μM: 9.6 ×10⁻⁶ cm/s
[4]
  IC50: 568 nM
[5]
  IC50: 0.6 nM

## CCCC[C@H]1CN(c2ccccc2)c2cc(SC)c(O/C=C/C(=O)O)cc2S(=O)(=O)N1C (single isomer, unassigned) [Example 15]
[1]
  effect on serum bile acid levels: increased serum bile acid levels
[2]
  bioavailability: 50%
[3]
  Papp A→B at 120 min, 10 μM: 14.1 ×10⁻⁶ cm/s
  Papp B→A at 120 min, 10 μM: 13 ×10⁻⁶ cm/s
[5]
  IC50: 2.2 nM

## CCCCC1CN(c2ccccc2)c2cc(SC)c(O/C=C(\F)C(=O)O)cc2S(=O)(=O)C1 (stereo not shown) [Example 4, (Z)-3-((3-butyl-7-(methylthio)-1,1-dioxido-5-phenyl-2,3,4,5-tetrahydro-1,5-benzothiazepin-8-yl)oxy)-2-fluoroacrylic Acid]
[3]
  Papp A→B at 120 min, 10 μM: 2.4 ×10⁻⁶ cm/s
  Papp B→A at 120 min, 10 μM: 6 ×10⁻⁶ cm/s
[4]
  IC50: 1510 nM
[5]
  IC50: 1.9 nM

## CCCCC1CN(c2ccccc2)c2cc(SC)c(O/C=C(\F)C(=O)O)cc2S(=O)(=O)N1 (stereo not shown) [Example 10, (Z)-3-((3-butyl-7-(methylthio)-1,1-dioxido-5-phenyl-2,3,4,5-tetrahydro-1,2,5-benzothiadiazepin-8-yl)oxy)-2-fluoroacrylic Acid]
[3]
  Papp A→B at 120 min, 10 μM: 0.5 ×10⁻⁶ cm/s
  Papp B→A at 120 min, 10 μM: 1.9 ×10⁻⁶ cm/s
[4]
  IC50: 1140 nM
[5]
  IC50: 1 nM

## CCCCC1CN(c2ccc(F)cc2)c2cc(SCC)c(O/C=C/C(=O)O)cc2S(=O)(=O)N1C (racemic) [Example 23, (E)-3-((3-butyl-7-(ethylthio)-5-(4-fluorophenyl)-2-methyl-1,1-dioxido-2,3,4,5-tetrahydro-1,2,5-benzothiadiazepin-8-yl)oxy)acrylic Acid]
[3]
  Papp A→B at 120 min, 10 μM: 12.6 ×10⁻⁶ cm/s
  Papp B→A at 120 min, 10 μM: 9.3 ×10⁻⁶ cm/s
[4]
  IC50: 3060 nM
[5]
  IC50: 1 nM

## CCCCC1CN(c2ccccc2)c2cc(SC)c(O/C=C/C(=O)O)cc2S(=O)(=O)C1 (racemic) [Example 1, (E)-3-((3-butyl-7-(methylthio)-1,1-dioxido-5-phenyl-2,3,4,5-tetrahydro-1,5-benzothiazepin-8-yl)oxy)acrylic Acid]
[3]
  Papp A→B at 120 min, 10 μM: 25.6 ×10⁻⁶ cm/s
  Papp B→A at 120 min, 10 μM: 19.1 ×10⁻⁶ cm/s
[4]
  IC50: ≥ 10000 nM
[5]
  IC50: 9.9 nM

## CCCC[C@@H]1CN(c2ccccc2)c2cc(SC)c(O/C=C(\F)C(=O)O)cc2S(=O)(=O)C1 (single isomer, unassigned) [Example 6]
[1]
  effect on serum bile acid levels: increased serum bile acid levels
[2]
  bioavailability: 26%
[3]
  Papp A→B at 120 min, 10 μM: 2.7 ×10⁻⁶ cm/s
  Papp B→A at 120 min, 10 μM: 5.5 ×10⁻⁶ cm/s
[4]
  IC50: 1440 nM
[5]
  IC50: 1.4 nM

## CCCC[C@H]1CN(c2ccccc2)c2cc(SC)c(O/C=C/C(=O)O)cc2S(=O)(=O)C1 (single isomer, unassigned) [Example 3]
[1]
  effect on serum bile acid levels: increased serum bile acid levels
[2]
  bioavailability: 50%
[3]
  Papp A→B at 120 min, 10 μM: 24 ×10⁻⁶ cm/s
  Papp B→A at 120 min, 10 μM: 18.8 ×10⁻⁶ cm/s
[5]
  IC50: 4.8 nM

## CCCC[C@H]1CN(c2ccccc2)c2cc(SCC)c(O/C=C/C(=O)O)cc2S(=O)(=O)N1C (single isomer, unassigned) [Example 18]
[3]
  Papp A→B at 120 min, 10 μM: 15 ×10⁻⁶ cm/s
  Papp B→A at 120 min, 10 μM: 9.7 ×10⁻⁶ cm/s
[4]
  IC50: 5280 nM
[5]
  IC50: 2.4 nM

— US11708340B2, “Benzothia(di)azepine compounds and their use as bile acid modulators” (Albireo AB, priority 2019, dated 2023)
